Test results as given in ChEMBL document CHEMBL1158209, “Sindurol and Nephthoside: New Tetraprenyltoluquinols from the Soft Coral Sinularia dura and Nephthea sp” (J Nat Prod, 1996).
Values after ≈ are worked out from the molar mass of the structure shown.

The compounds below were run on P388 (assay: Cytotoxicity against mouse P388 cells).
Type: functional, cell-based

SMILES | IC50
CC(=O)OCC(O)(C(Cc1cc(O)c(C)cc1O)OC(C)=O)C12CCC(C)(CC(/C=C(\C)CCC=C(C)C)O1)O2 (centres undefined) [SINDUROL] | 1.2 µg/mL (≈ 2.14 µM)
CC(C)=CCC/C(C)=C/CC/C(C)=C/CC/C(C)=C/Cc1cc(O[C@@H]2OC[C@@H](O)[C@@H](O)[C@@H]2O)c(C)cc1O [NEPHTHOSIDE] | 2 µg/mL (≈ 3.78 µM)
CC(=O)O[C@@H]1CO[C@@H](Oc2cc(C/C=C(\C)CC/C=C(\C)CC/C=C(\C)CCC=C(C)C)c(O)cc2C)[C@@H](O)[C@@H]1O [NEPHTHOSIDE MANOACETATE] | 2 µg/mL (≈ 3.5 µM)
CC(C)=CCC/C(C)=C/CC/C(C)=C/CC/C(C)=C/Cc1cc(O)c(C)cc1O | 2 µg/mL (≈ 5.04 µM)
